Several values for one entry are separate records, joined by “and”; a condition that tells them apart may be missing. Equal entries are not always repeated. Toxic doses and inconclusive results are not listed. Rule as the data show it: active = T/C of 150% or more; inactive = T/C below 125%.
System: L1210 leukemia ip in BDF1 mice, survival T/C
Assay: NCI In Vivo Anticancer Drug Screen. Data for tumor model L1210 Leukemia (intraperitoneal) in B6D2F1 (BDF1) mice
Details: endpoint: mean survival time, higher = longer survival
Procedure, shortened: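 Transplanted-tumor mice were given test agent; controls received vehicle only. Survival readings from the two groups were divided (treated over control).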

[1] = dose: 50.0 mg/kg/injection, schedule: Q01DX001 (ip), vehicle: saline
[2] = dose: 100.0 mg/kg/injection, schedule: Q01DX001 (ip), vehicle: saline
[3] = dose: 200.0 mg/kg/injection, schedule: Q01DX001 (ip), vehicle: saline
[4] = dose: 400.0 mg/kg/injection, schedule: Q01DX001 (ip), vehicle: saline
[5] = dose: 50.0 mg/kg/injection, schedule: Q01DX009 (ip), vehicle: saline
[6] = dose: 100.0 mg/kg/injection, schedule: Q01DX009 (ip), vehicle: saline
[7] = dose: 200.0 mg/kg/injection, schedule: Q01DX009 (ip), vehicle: saline
[8] = dose: 100.0 mg/kg/injection, schedule: Q01DX009 (ip), vehicle: Klucel (hydroxypropylcellulose) (HPC)
[9] = dose: 200.0 mg/kg/injection, schedule: Q01DX009 (ip), vehicle: Klucel (hydroxypropylcellulose) (HPC)
[10] = dose: 400.0 mg/kg/injection, schedule: Q01DX009 (ip), vehicle: Klucel (hydroxypropylcellulose) (HPC)
[11] = dose: 25.0 mg/kg/injection, schedule: Q01DX009 (ip), vehicle: Klucel (hydroxypropylcellulose) (HPC)
[12] = dose: 100.0 mg/kg/injection, schedule: Q04DX002 (ip), vehicle: saline
[13] = dose: 200.0 mg/kg/injection, schedule: Q04DX002 (ip), vehicle: saline
[14] = dose: 100.0 mg/kg/injection, schedule: Q04DX003 (ip), vehicle: saline

Measured: T/C

COC(=O)[C@H]1[C@H]2C[C@@H]3c4[nH]c5ccccc5c4CCN3C[C@H]2C[C@@H](OC(=O)c2cc(OC)c(OC)c(OC)c2)[C@@H]1OC
inactive: dose: 0.23 mg/kg/injection, schedule: Q01DX009 (ip), vehicle: Klucel (hydroxypropylcellulose) (HPC) 93 % of control | dose: 0.23 mg/kg/injection, schedule: Q04DX003 (ip), vehicle: saline 95 % of control | dose: 0.46 mg/kg/injection, schedule: Q01DX009 (ip), vehicle: Klucel (hydroxypropylcellulose) (HPC) 90 % of control | dose: 0.46 mg/kg/injection, schedule: Q04DX003 (ip), vehicle: saline 104 % of control | dose: 0.93 mg/kg/injection, schedule: Q01DX009 (ip), vehicle: Klucel (hydroxypropylcellulose) (HPC) 101 % of control | dose: 0.93 mg/kg/injection, schedule: Q04DX003 (ip), vehicle: saline 112 % of control | dose: 1.87 mg/kg/injection, schedule: Q01DX009 (ip), vehicle: Klucel (hydroxypropylcellulose) (HPC) 88 % of control | dose: 1.87 mg/kg/injection, schedule: Q04DX003 (ip), vehicle: saline 98 % of control | dose: 3.75 mg/kg/injection, schedule: Q04DX003 (ip), vehicle: saline 101 % of control

O=C(Nc1ncc([N+](=O)[O-])s1)C(F)(F)F
inactive: [1] 97 % of control | [2] 92 % of control | [3] 90 % of control | [4] 105 % of control

Cc1ccc2c(c1)P(=O)(O)c1cc(F)ccc1O2
inactive: [5] 105 % of control | [6] 112 % of control | [7] 112 % of control | dose: 400.0 mg/kg/injection, schedule: Q01DX009 (ip), vehicle: saline 108 % of control

COc1ccc2c(c1)CCC1CC(=O)C=C21 (stereo not given)
inactive: dose: 100.0 mg/kg/injection, schedule: Q01DX009 (ip), vehicle: saline sonified 113 % of control | dose: 200.0 mg/kg/injection, schedule: Q01DX009 (ip), vehicle: saline sonified 103 % of control | dose: 400.0 mg/kg/injection, schedule: Q01DX009 (ip), vehicle: saline sonified 104 % of control

O=C(/C=C/C=C\c1ccccc1)/C=C/C=C/c1ccccc1
inactive: dose: 100.0 mg/kg/injection, schedule: Q01DX001 (ip), vehicle: Klucel (hydroxypropylcellulose) (HPC) 91 % of control | [8] 92 % of control | dose: 200.0 mg/kg/injection, schedule: Q01DX001 (ip), vehicle: Klucel (hydroxypropylcellulose) (HPC) 93 % of control | [9] 92 % of control | dose: 400.0 mg/kg/injection, schedule: Q01DX001 (ip), vehicle: Klucel (hydroxypropylcellulose) (HPC) 93 % of control | [10] 89 % of control

COc1ccc(CN2CCCN(Cc3ccc(OC)cc3OC)C2c2ccccc2O)c(OC)c1
inactive: [1] 97 % of control | [2] 92 % of control | [3] 90 % of control | [4] 101 % of control

OCC1OC([Se])C(O)C(O)C1O.[CH3][Sb][CH3] (stereo not given)
inactive: dose: 3.13 mg/kg/injection, schedule: Q01DX009 (ip), vehicle: Klucel (hydroxypropylcellulose) (HPC) 99 % of control | dose: 6.25 mg/kg/injection, schedule: Q01DX009 (ip), vehicle: Klucel (hydroxypropylcellulose) (HPC) 96 % of control and 98 % of control | dose: 12.5 mg/kg/injection, schedule: Q01DX009 (ip), vehicle: Klucel (hydroxypropylcellulose) (HPC) 99 % of control and 104 % of control | [11] 91 % of control

C=CC(=O)OCC(C)(C)C
inactive: [12] 100 % of control and 103 % of control | [13] 100 % of control and 107 % of control | dose: 800.0 mg/kg/injection, schedule: Q04DX002 (ip), vehicle: saline 97 % of control

CN(C)Cc1ccccc1C(O)(c1ccccc1)c1ccccc1CN(C)C
inactive: dose: 8.0 mg/kg/injection, schedule: Q01DX015 (ip), vehicle: carboxymethylcellulose (CMC) 91 % of control | dose: 16.0 mg/kg/injection, schedule: Q01DX015 (ip), vehicle: carboxymethylcellulose (CMC) 90 % of control | dose: 32.0 mg/kg/injection, schedule: Q01DX015 (ip), vehicle: carboxymethylcellulose (CMC) 88 % of control

C=CCCOC(C)=O
inactive: dose: 75.0 mg/kg/injection, schedule: Q04DX003 (ip), vehicle: saline 96 % of control | [8] 107 % of control | dose: 150.0 mg/kg/injection, schedule: Q04DX003 (ip), vehicle: saline 100 % of control | [9] 97 % of control | dose: 300.0 mg/kg/injection, schedule: Q04DX003 (ip), vehicle: saline 100 % of control | [10] 100 % of control

CC(C)SCC(NC(=O)/C=C/c1ccccc1)C(=O)O (stereo not given)
inactive: dose: 50.0 mg/kg/injection, schedule: Q04DX003 (ip), vehicle: other 97 % of control | dose: 100.0 mg/kg/injection, schedule: Q04DX003 (ip), vehicle: other 101 % of control | dose: 200.0 mg/kg/injection, schedule: Q04DX003 (ip), vehicle: other 95 % of control

CC1CC(=O)NC1=O (stereo not given)
inactive: [14] 115 % of control | dose: 200.0 mg/kg/injection, schedule: Q04DX003 (ip), vehicle: saline 116 % of control | dose: 400.0 mg/kg/injection, schedule: Q04DX003 (ip), vehicle: saline 112 % of control

CNC(=O)OCc1c(COC(=O)NC)c(-c2ccc(OC)cc2)n2c1CCC2
inactive: dose: 50.0 mg/kg/injection, schedule: Q01DX009 (ip), vehicle: Klucel (hydroxypropylcellulose) (HPC) 109 % of control | [8] 117 % of control | [9] 98 % of control

CC(=O)c1ccc(N2CCCCC2)cc1
inactive: [1] 96 % of control | [2] 94 % of control | [3] 100 % of control | [4] 94 % of control

O=C(Nc1ccc(Cl)c(C(F)(F)F)c1)Oc1cccnc1
inactive: [11] 94 % of control | [8] 92 % of control and 93 % of control

CCOC(=O)COc1cc(Cl)ccn1
inactive: dose: 100.0 mg/kg/injection, schedule: Q04DX002 (ip), vehicle: Klucel (hydroxypropylcellulose) (HPC) 110 % of control | dose: 200.0 mg/kg/injection, schedule: Q04DX002 (ip), vehicle: Klucel (hydroxypropylcellulose) (HPC) 104 % of control | dose: 400.0 mg/kg/injection, schedule: Q04DX002 (ip), vehicle: Klucel (hydroxypropylcellulose) (HPC) 104 % of control

Cc1cccc(C(=O)OCc2ccccc2CN2CCCC2)c1
inactive: [12] 93 % of control | [13] 104 % of control

Cc1cc2nc(CN)[nH]c2cc1C
inactive: [5] 98 % of control | [6] 98 % of control | [7] 93 % of control

COc1ccccc1C(=O)N/N=C/c1cccc2ccccc12
inactive: dose: 100.0 mg/kg/injection, schedule: Q01DX009 (ip), vehicle: saline with Tween-80 114 % of control | dose: 100.0 mg/kg/injection, schedule: Q04DX003 (ip), vehicle: saline with Tween-80 103 % of control | dose: 200.0 mg/kg/injection, schedule: Q01DX009 (ip), vehicle: saline with Tween-80 105 % of control | dose: 200.0 mg/kg/injection, schedule: Q04DX003 (ip), vehicle: saline with Tween-80 96 % of control | dose: 400.0 mg/kg/injection, schedule: Q01DX009 (ip), vehicle: saline with Tween-80 107 % of control | dose: 400.0 mg/kg/injection, schedule: Q04DX003 (ip), vehicle: saline with Tween-80 94 % of control

NC(N)=Nc1ccc(Sc2ccc(N=C(N)N)cc2)cc1
inactive: dose: 75.0 mg/kg/injection, schedule: Q01DX001 (ip), vehicle: carboxymethylcellulose (CMC) 101 % of control | dose: 150.0 mg/kg/injection, schedule: Q01DX001 (ip), vehicle: carboxymethylcellulose (CMC) 98 % of control | dose: 300.0 mg/kg/injection, schedule: Q01DX001 (ip), vehicle: carboxymethylcellulose (CMC) 98 % of control

Cc1cc(C)c2c(=O)[nH]c(=S)[nH]c2n1
inactive: [1] 102 % of control | [2] 108 % of control | [8] 95 % of control | [3] 102 % of control | [9] 91 % of control | [4] 98 % of control | [10] 98 % of control

NNS(=O)(=O)c1ccccc1
inactive: dose: 25.0 mg/kg/injection, schedule: Q04DX003 (ip), vehicle: saline 101 % of control | dose: 50.0 mg/kg/injection, schedule: Q01DX001 (ip), vehicle: carboxymethylcellulose (CMC) 101 % of control | dose: 50.0 mg/kg/injection, schedule: Q04DX003 (ip), vehicle: saline 101 % of control | dose: 100.0 mg/kg/injection, schedule: Q01DX001 (ip), vehicle: carboxymethylcellulose (CMC) 92 % of control | [14] 103 % of control

— PubChem BioAssay AID248 (DTP/NCI, 2004)
